Measurements reported in PMC5397059, “Design, synthesis and structure-activity relationship study of wollamide B; a new potential anti TB agent” (PLoS ONE, 2017).
In brackets after ≈: the same amount, converted by molar mass. Several values for one entry are separate records, joined by “and”; a condition that tells them apart may be missing. Equal values may be shown once. Non-standard residues stand in square brackets, D forms with d. Residues, ends and D or L forms follow the SMILES beside them. dPhe(4-Cl) = N[C@H](Cc1ccc(Cl)cc1)C(=O)O; dOrn = NCCC[C@@H](N)C(=O)O

What was measured:
Chrom logD assay = assay type: physicochemical; conditions: pH 7.4; read-out: Log D
Description: The Chromatographic Hydrophobicity Index (CHI) values were measured using a reversed phase HPLC column (50 x 2 mmx 3 μMGemini NX C18, Phenomenex, UK) with fast acetonitrile gradient at starting mobile phase of 100% pH = 7.4 buffer. CHI values are derived directly from the gradient retention times by using a calibration line obtained for standard compounds. The CHI value approximates to the volume % organic concentration when the compound elutes. CHI is linearly transformed into ChromlogD by the formula: ChromlogD=0.0857CHI−2.00
The average error of the assay is ±3 CHI unit or ±0.25 ChromlogD.

human serum albumin = human serum albumin (Homo sapiens, UniProt P02768); assay: Human serum albumin (HSA) binding assay; assay type: in vitro ADME; conditions: human serum albumin binding
Description: HSA binding assay was performed according to the method described by Valko K, et al. The basic principle of the measurements is the determination of gradient retention times of compounds on immobilized HSA column and converting these retention times to the appropriate property values using calibration. The peaks are detected and identified by UV. Calibration sets of compounds are measured before each run for which the HSA binding values are known. The retention times of the calibration set of compounds are plotted against these known values. The slope and the intercept of the obtained straight lines are used to calculate the HSA binding for the unknown compounds.

Mtb H37Rv = conditions: duplicate; analogues
[1] = Plasma stability assay, mouse plasma; assay type: in vitro ADME; conditions: CD1, mouse, plasma; 2 hours at 37°C, triplicates; read-out: Plasma stability (% remaining) Mouse
Description: (§1) Plasma stability of the compounds was assessed in CD1 mouse and human plasma. Plasma was spiked with 1 μL of a 10 mM of each test compound solution to produce a 1 uM incubation. Three separate 300 μl aliquots were then taken from each tube and incubated at 37°C for 2 h. At each time point (0, 15, 30, 60 and 120 min), 50 μL of plasma were collected from each sample. Samples were extracted by protein precipitation with 250 μL of 0.1% AcOH acetonitrile methanol 3–1 (v/v) containing 1uM internal standard and centrifuged for 10min at 2800rpm. Supernatants were collected prior the injection onto an LC-MS/MS system. Analyte/Internal standard peak area ratios were referenced to the zero time-point samples as 100% in order to determine the percentage of compound remaining for each time-point. Ln plots of the % remaining for each compound were used to determine the half-life for the plasma incubations.

[2] = Intrinsic clearance (CLint) assay, mouse liver microsomes; assay type: in vitro ADME; conditions: for % LBF Mouse: liver blood flow; for CLint Mouse: mouse liver microsomes; for half-life at 0.5 µM: mouse, pooled mouse liver microsomes, pH 7.4, read-out: Microsomal t1/2 Mouse; for CLpred Mouse: predicted metabolic clearance
Description: (§2) Pooled mouse and human liver microsomes are purchased from Xenotech. Microsomes (final protein concentration 0.5 mg/mL, MgCl2 (final concentration = 5 mM) and test compound (final substrate concentration = 0.5] M; final DMSO concentration = 0.5%) in 0.1 M phosphate buffer pH 7.4 are pre-incubated at 37°C prior to the addition of NADPH (final concentration = 1 mM) to initiate the reaction. The final incubation volume is 600 μL.
(§3) Control incubation is included for each compound tested where 0.1 M phosphate buffer pH 7.4 is added instead of NADPH (minus NADPH). One control compound is included with each species. All incubations are performed singularly for each test compound. Each compound is incubated for 45 minutes and samples (100 μL) of incubate are taken at 0, 5, 15, 30 and 45 min. The control (minus NADPH) is sampled at 30 min only. The reactions are stopped by the addition of sample to 200 μL Acetonitrile: Methanol 3:1 containing internal standard. The terminated samples are centrifuged at 2,500 rpm for 20 min at 4°C to precipitate the protein. Quantitative analysis: following protein precipitation, the samples were analyzed using specific LC-MS/MS conditions. Data analysis: from a plot of ln peak area ratio (compound peak area/internal standard peak area) against time, the gradient of the line was determined. Subsequently, half-life and intrinsic clearance were calculated using the equations below: Eliminationrateconstant(K)=(−gradient) Halflife(t1/2)(min)=0.693/K Cli(mL/min/gprotien)=V×0.693/t1/2 WhereV=Incubationvolume(mL/gmicrosomalprotien)

[3] = Intrinsic clearance (CLint) assay, human liver microsomes; assay type: in vitro ADME; conditions: for half-life at 0.5 µM: human, pooled human liver microsomes, pH 7.4, human liver microsomes, read-out: Microsomal t1/2 Human; for % LBF Human: liver blood flow; for CLpred Human: predicted metabolic clearance; for % LBF given as a fraction (metabolic stability class): predicted hepatic clearance, microsomal stability
Description: as §2, §3

[4] = Chemi-Luminescent Nitrogen Detection (CLND) kinetic solubility assay; assay type: physicochemical; conditions: phosphate buffered saline, pH 7.4; kinetic aqueous solubility by CLND; read-out: Solubility
Description: GSK in-house kinetic solubility assay: 5 μL of 10mM DMSO stock solution diluted to 100 uL with pH7.4 phosphate buffered saline, equilibrated for 1 hour at room temperature, filtered through Millipore Multiscreen HTS-PCF filter plates (MSSL BPC).
The filtrate is quantified by suitably calibrated flow injection CLND. The standard error of the CLND solubility determination is ±30 μM, the upper limit of the solubility is 500 μM when working from 10 mM DMSO stock solution.

[5] = Artificial membrane permeability assay; assay type: in vitro ADME; conditions: PAMPA, pH 7.4; passive artificial membrane permeability; read-out: Permeability
Description: A 8% L-a-phosphatidylcholine (EPC) in 1% cholesterol decane solution and a 1.8% EPC in cholesterol decane solution were prepared. The lipid solution was then aliquoted into 4 mL capped vials, sealed with parafilm and stored in-20°Cfreezer. The lipid solution was then transferred from 4 mL vial into 96-well half area plate (130μL/well) for daily assay usage. An additional 50 mM phosphate buffer with 0.5% encapsin, pH at 7.4 was prepared. The assay was run by the Biomek FX and Biomek software. The assay procedure is written under the Biomek software. For one batch assay, it can test two 96-well sample plates with at least one standard on each sample plate. The total assay time was about 4 hours. 3.5 μL of lipid solution were added to the filler plate, shaken for 12 seconds, and 250 μL of buffer were added to donor side and 100 μL to the receiver side. The assay plate was shaken for 45 min before adding the compounds. The test compounds (2.5 μL) were added to the donor side. The assay was run as replicates: Assay plates1 and 2 tested the sample plate 1; assay plates 3 and 4 tested the sample plate 2. The assay plates were then incubated and shaken for 3 hours at room temperature.
The assay samples were transferred to the HPLC analysis plates and 100 μL of receiver solution were aspirated and transferred to the receiver for analysis. Similarly, another 100 μL from the donor solution were transferred to the donor analysis plate.
Compound concentration was measured by HPLC at different time-points and permeability was established as nm/sec.

[6] = Plasma stability assay, human plasma; assay type: in vitro ADME; conditions: human, plasma; 2 hours at 37°C, triplicates; read-out: Plasma stability (% remaining) Human
Description: as §1

Sequence of human serum albumin (P02768 25-609): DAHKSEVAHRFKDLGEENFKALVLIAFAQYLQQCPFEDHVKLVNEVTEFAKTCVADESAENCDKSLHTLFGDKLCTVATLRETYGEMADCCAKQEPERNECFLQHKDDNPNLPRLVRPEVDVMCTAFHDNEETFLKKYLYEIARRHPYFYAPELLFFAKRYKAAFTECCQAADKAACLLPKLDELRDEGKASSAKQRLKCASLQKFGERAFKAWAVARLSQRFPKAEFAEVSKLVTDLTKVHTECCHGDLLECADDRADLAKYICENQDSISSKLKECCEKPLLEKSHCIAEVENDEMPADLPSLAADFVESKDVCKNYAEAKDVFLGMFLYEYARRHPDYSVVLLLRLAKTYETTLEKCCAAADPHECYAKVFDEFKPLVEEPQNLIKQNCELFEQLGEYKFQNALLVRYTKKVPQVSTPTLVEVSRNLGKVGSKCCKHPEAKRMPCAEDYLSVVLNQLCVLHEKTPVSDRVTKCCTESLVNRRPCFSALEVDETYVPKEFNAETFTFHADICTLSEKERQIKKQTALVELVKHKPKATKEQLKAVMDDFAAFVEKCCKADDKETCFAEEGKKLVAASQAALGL

| Compound | chromatographic logD (Chrom logD assay) | % HSA (human serum albumin) | MIC against Mtb H37Rv (Mtb H37Rv) [µM] | remaining at 2 h, 1 uM [1] [%] | % LBF Mouse [2] [%] | CLint Mouse [2] [mL/min/g tissue] | half-life at 0.5 µM [2] [h] | CLpred Mouse [2] [mL/min/kg] | CLint Human ([3]; human liver microsomes) [mL/min/g tissue] | half-life at 0.5 µM [3] [h] | % LBF Human [3] [%] | solubility kinetic at 1 h [4] [µg/mL] | Papp at 3 h [5] [×10⁻⁶ cm/s] | remaining at 2 h, 1 uM [6] [%] | CLpred Human [3] [mL/min/kg] | % LBF given as a fraction (metabolic stability class) [3] | Microsomal t1/2 Human ([3]; human liver microsomes) [h] |
| --- | --- | --- | --- | --- | --- | --- | --- | --- | --- | --- | --- | --- | --- | --- | --- | --- | --- |
| CC(C)C[C@H]1NC(=O)[C@H](C)NC(=O)[C@H](Cc2c[nH]c3ccccc23)NC(=O)[C@@H](CCCN)NC(=O)[C@H](CC(N)=O)NC(=O)[C@H](C(C)C)NC1=O [Compound 2c] (cyclo(A[dL]VN[dOrn]W)) | 0.94 | 43.14% | >80 | 93 | <16.27 | <0.48 | > 2.31 | <20.50 | <0.40 | > 2.31 | <35.08 | > 134 | < 1 | 107 |  |  |  |
| CC(C)C[C@@H]1NC(=O)[C@H](C)NC(=O)[C@@H](CCCN)NC(=O)[C@H](CC(N)=O)NC(=O)[C@H](C(C)C)NC(=O)[C@@H](CC(C)C)NC1=O [Compound 3c] (cyclo(AL[dL]VN[dOrn])) |  | 26% and 25.51% | >80 | 92 | <16.27 | <0.48 | > 2.31 | <20.50 | <0.40 | > 2.31 | <35.08 | 136 (≈ 218 µM) |  | 86 | 6.31 |  |  |
| CC(C)C[C@@H]1NC(=O)[C@H](Cc2c[nH]c3ccccc23)NC(=O)[C@@H](CCCN)NC(=O)[C@H](C)NC(=O)[C@H](C(C)C)NC(=O)[C@@H](CC(C)C)NC1=O [Compound 4c] (cyclo(A[dOrn]WL[dL]V)) | 2 | 83% and 82.76% | 20 (≈ 13.9 µg/mL) | 100 | <16.27 | <0.48 | > 2.31 | <20.50 | <0.40 | > 2.31 | <35.08 | 143 (≈ 205 µM) | < 0.3 | 95 | 6.31 |  |  |
| CC(C)C[C@@H]1NC(=O)[C@H](Cc2c[nH]c3ccccc23)NC(=O)[C@@H](CCCN)NC(=O)[C@H](CC(N)=O)NC(=O)[C@H](C)NC(=O)[C@@H](CC(C)C)NC1=O [Compound 5c] (cyclo(AN[dOrn]WL[dL])) | 1.32 | 56.76% | >80 | 96 | <16.27 | <0.48 | > 2.31 | <20.50 | <0.40 | > 2.31 | <35.08 | 129 (≈ 181 µM) | < 1 | 98 | 6.31 |  |  |
| CC(C)C[C@@H]1NC(=O)[C@H](Cc2c[nH]c3ccccc23)NC(=O)[C@@H](CCCN)NC(=O)[C@H](CC(N)=O)NC(=O)[C@H](C(C)C)NC(=O)[C@@H](C)NC1=O [Compound 6c] (cyclo(L[dA]VN[dOrn]W)) | 1.04 | 42.21% | >80 | 102 | <16.27 | <0.48 | > 2.31 | <20.50 | 0.73 | 1.25 | 49.94 | ≥ 196 | < 1 | 95 | 8.99 |  |  |
| CC(C)C[C@@H]1NC(=O)[C@H](Cc2c[nH]c3ccccc23)NC(=O)[C@@H](CCCN)NC(=O)[C@@H](CCCN)NC(=O)[C@H](C(C)C)NC(=O)[C@@H](CC(C)C)NC1=O [Compound 9c] (cyclo(L[dL]V[dOrn][dOrn]W)) | 1.32 | 86.46% |  | 100 | 18.68 | 0.57 | 1.95 | 23.53 | 0.45 | 2.03 | 38.08 | 39 (≈ 52.7 µM) | 1 | 100 | 6.85 | < 1/3 |  |
| CC(C)C[C@@H]1NC(=O)[C@H](Cc2c[nH]c3ccccc23)NC(=O)[C@@H](CCCN)NC(=O)[C@H](CC(N)=O)NC(=O)[C@H](C(C)C)NC(=O)[C@@H](Cc2ccc(Cl)cc2)NC1=O [Compound 16c] (cyclo(L[dPhe(4-Cl)]VN[dOrn]W)) | 1.92 | 92% and 92.54% |  | 98 | 19.21 | 0.59 | 1.89 | 24.21 | 2.43 | < 0.5 | 76.78 | ≥ 192 | < 0.3 | 99 | 13.82 | > ¾ | 0.3773 |
